Experimental data taken from patent publication US20210254056A1, “IDENTIFICATION AND TARGETED MODULATION OF GENE SIGNALING NETWORKS” (CAMP4 THERAPEUTICS CORPORATION, priority 2017, published 2021).

System: hepatocytes
Test: RNA-seq of hepatocytes treated with Phase III failure compounds
Settings: hepatocytes
Description: RNA-seq was performed to determine the effects of the compounds on hepatocytes.
Significance was determined by the criteria of FPKM≥0.5, a log 2(fold-change)≥1, and a […].

## COc1nc(N)nc2c1ncn2[C@@H]1O[C@H](COP(=O)(N[C@@H](C)C(=O)OCC(C)(C)C)Oc2cccc3ccccc23)[C@@H](O)[C@@]1(C)O (some centres unmarked) [Bms-986094 (inx-189), Bms-986094]
RNA-seq, q≤0.05, genes in the value or listed in the block
  significant modulation of expression of disease genes: significantly (q≤0.05) modulate expression
Gene A1BG
  A1BG expression, RNA-seq result: −0.1
Gene AARS2
  AARS2 expression, RNA-seq result: 0.13
Gene AASS
  AASS expression, RNA-seq result: −0.77
Gene ABAT
  ABAT expression, RNA-seq result: −1.42
Gene ABCA1
  ABCA1 expression, RNA-seq result: −0.43
Gene ABCB4
  ABCB4 expression, RNA-seq result: −0.43
Gene ABCB11
  ABCB11 expression, RNA-seq result: −0.76
Gene ABCC2
  ABCC2 expression, RNA-seq result: −1.34
Gene ABCC3
  ABCC3 expression, RNA-seq result: −0.96
Gene ABCC6
  ABCC6 expression, RNA-seq result: −1.45
Gene ABCD1
  ABCD1 expression, RNA-seq result: 0.08
Gene ABCD3
  ABCD3 expression, RNA-seq result: −0.4
Gene ABCG5
  ABCG5 expression, RNA-seq result: −0.11
Gene ABCG8
  ABCG8 expression, RNA-seq result: −0.11
Gene ABHD5
  ABHD5 expression, RNA-seq result: 0.25
Gene ACACA
  ACACA expression, RNA-seq result: −2.09
Gene ACACB
  ACACB expression, RNA-seq result: −1.86
Gene ACAD9
  ACAD9 expression, RNA-seq result: −0.83
Gene ACADSB
  ACADSB expression, RNA-seq result: −0.04
Gene ACADVL
  ACADVL expression, RNA-seq result: 0.11
Gene ACOT8
  ACOT8 expression, RNA-seq result: −0.33
Gene ACOX2
  ACOX2 expression, RNA-seq result: −0.97
Gene ACOX3
  ACOX3 expression, RNA-seq result: −1.75
Gene ACSF3
  ACSF3 expression, RNA-seq result: −0.6
Gene ACSL1
  ACSL1 expression, RNA-seq result: −0.12
Gene ACSL3
  ACSL3 expression, RNA-seq result: 0.16
Gene ACTG2
  ACTG2 expression, RNA-seq result: −0.13
Gene ACTN1
  ACTN1 expression, RNA-seq result: −2.21
Gene ADA
  ADA expression, RNA-seq result: −0.72
Gene ADCK3
  ADCK3 expression, RNA-seq result: 0.18
Gene ADK
  ADK expression, RNA-seq result: −1.7
Gene ADSL
  ADSL expression, RNA-seq result: −0.96
Gene AFP
  AFP expression, RNA-seq result: −0.16
Gene AGK
  AGK expression, RNA-seq result: −0.43
Gene AGL
  AGL expression, RNA-seq result: −0.97
Gene AGPAT2
  AGPAT2 expression, RNA-seq result: −1.09
Gene AGPS
  AGPS expression, RNA-seq result: −1.61
Gene AGT
  AGT expression, RNA-seq result: 0.27
Gene AGTR1
  AGTR1 expression, RNA-seq result: −0.07
Gene AGXT
  AGXT expression, RNA-seq result: −0.66
Gene AHI1
  AHI1 expression, RNA-seq result: −0.61
Gene AHSG
  AHSG expression, RNA-seq result: −0.32
Gene AK1
  AK1 expression, RNA-seq result: 0.62
Gene AKR1C1
  AKR1C1 expression, RNA-seq result: −0.96
Gene AKR1C2
  AKR1C2 expression, RNA-seq result: −1.2
Gene AKR1C4
  AKR1C4 expression, RNA-seq result: −1.68
Gene AKR1D1
  AKR1D1 expression, RNA-seq result: 0.17
Gene ALAD
  ALAD expression, RNA-seq result: −0.69
Gene ALAS1
  ALAS1 expression, RNA-seq result: 0.11
Gene ALDH1B1
  ALDH1B1 expression, RNA-seq result: −0.86
Gene ALDH2
  ALDH2 expression, RNA-seq result: −0.04
Gene ALDH6A1
  ALDH6A1 expression, RNA-seq result: −0.08
Gene ALDOA
  ALDOA expression, RNA-seq result: −0.48
Gene ALDOB
  ALDOB expression, RNA-seq result: −0.27
Gene ALG12
  ALG12 expression, RNA-seq result: −0.76
Gene ALMS1
  ALMS1 expression, RNA-seq result: −1.35
Gene ALPL
  ALPL expression, RNA-seq result: −1.05
Gene AMACR
  AMACR expression, RNA-seq result: 0.28
Gene AMPD3
  AMPD3 expression, RNA-seq result: 0.57
Gene AMT
  AMT expression, RNA-seq result: −0.61
Gene ANGPTL3
  ANGPTL3 expression, RNA-seq result: −0.73
Gene ANKS4B
  ANKS4B expression, RNA-seq result: −0.39
Gene ANKS6
  ANKS6 expression, RNA-seq result: −0.13
Gene ANPEP
  ANPEP expression, RNA-seq result: −0.47
Gene AOC2
  AOC2 expression, RNA-seq result: 0.32
Gene AP3B1
  AP3B1 expression, RNA-seq result: −1.36
Gene APC
  APC expression, RNA-seq result: −0.04
Gene APOA1
  APOA1 expression, RNA-seq result: −0.05
Gene APOA2
  APOA2 expression, RNA-seq result: 0.31
Gene APOA5
  APOA5 expression, RNA-seq result: −0.18
Gene APOB
  APOB expression, RNA-seq result: −0.78
Gene APOC2
  APOC2 expression, RNA-seq result: 0
Gene APOC3
  APOC3 expression, RNA-seq result: 0.42
Gene APOE
  APOE expression, RNA-seq result: −0.56
Gene APRT
  APRT expression, RNA-seq result: −0.42
Gene AQP7
  AQP7 expression, RNA-seq result: −0.35
Gene AQP9
  AQP9 expression, RNA-seq result: −0.05
Gene ARG1
  ARG1 expression, RNA-seq result: −1.7
Gene ARG2
  ARG2 expression, RNA-seq result: 0.62
Gene ARL13B
  ARL13B expression, RNA-seq result: −0.67
Gene ARSA
  ARSA expression, RNA-seq result: 0.27
Gene ARSB
  ARSB expression, RNA-seq result: −0.25
Gene ASL
  ASL expression, RNA-seq result: −0.24
Gene ASNS
  ASNS expression, RNA-seq result: 1.61
Gene ASPA
  ASPA expression, RNA-seq result: 1.55
Gene ASXL1
  ASXL1 expression, RNA-seq result: −1.04
Gene ATG7
  ATG7 expression, RNA-seq result: −1.54
Gene ATIC
  ATIC expression, RNA-seq result: −0.74
Gene ATM
  ATM expression, RNA-seq result: −0.5
Gene ATP7A
  ATP7A expression, RNA-seq result: −0.03
Gene ATP7B
  ATP7B expression, RNA-seq result: −0.8
Gene ATP8B1
  ATP8B1 expression, RNA-seq result: −2.3
Gene B2M
  B2M expression, RNA-seq result: 0.23
Gene B9D2
  B9D2 expression, RNA-seq result: −0.83
Gene BAAT
  BAAT expression, RNA-seq result: −1.93
Gene BBOX1
  BBOX1 expression, RNA-seq result: −0.77
Gene BBS10
  BBS10 expression, RNA-seq result: 0.59
Gene BCHE
  BCHE expression, RNA-seq result: −0.67
Gene BCKDHB
  BCKDHB expression, RNA-seq result: −1.21
Gene BCKDK
  BCKDK expression, RNA-seq result: −0.42
Gene BCO1
  BCO1 expression, RNA-seq result: 0.72
Gene BCR
  BCR expression, RNA-seq result: −1.54
Gene BLNK
  BLNK expression, RNA-seq result: 1.31
Gene BLOC1S3
  BLOC1S3 expression, RNA-seq result: 0.01
Gene BMPR1A
  BMPR1A expression, RNA-seq result: −0.9
Gene BRAF
  BRAF expression, RNA-seq result: −0.44
Gene BSCL2
  BSCL2 expression, RNA-seq result: 0.07
Gene BTD
  BTD expression, RNA-seq result: −0.53
Gene C4A
  C4A expression, RNA-seq result: 0.29
Gene C9
  C9 expression, RNA-seq result: 0.55
Gene C10orf10
  C10orf10 expression, RNA-seq result: 0.23
Gene C10orf11
  C10orf11 expression, RNA-seq result: −2.08
Gene C15orf41
  C15orf41 expression, RNA-seq result: −1.68
Gene CA2
  CA2 expression, RNA-seq result: 0.9
Gene CA5A
  CA5A expression, RNA-seq result: −1.34
Gene CA12
  CA12 expression, RNA-seq result: 0.58
Gene CAV1
  CAV1 expression, RNA-seq result: −0.74
Gene CCND1
  CCND1 expression, RNA-seq result: −0.78
Gene CD46
  CD46 expression, RNA-seq result: 0.43
Gene CD81
  CD81 expression, RNA-seq result: 0.03
Gene CD320
  CD320 expression, RNA-seq result: −0.96
Gene CDAN1
  CDAN1 expression, RNA-seq result: 0.38
Gene CDH1
  CDH1 expression, RNA-seq result: −1.79
Gene CEP19
  CEP19 expression, RNA-seq result: −0.28
Gene CEP83
  CEP83 expression, RNA-seq result: −0.39
Gene CEP164
  CEP164 expression, RNA-seq result: 0.23
Gene CEP290
  CEP290 expression, RNA-seq result: 0.21
Gene CFB
  CFB expression, RNA-seq result: 0.29
Gene CFHR2
  CFHR2 expression, RNA-seq result: 0.7
Gene CHRM3
  CHRM3 expression, RNA-seq result: −2.02
Gene CIDEC
  CIDEC expression, RNA-seq result: −0.6
Gene CLDN1
  CLDN1 expression, RNA-seq result: −0.83
Gene COG1
  COG1 expression, RNA-seq result: 0.5
